# Laboratory results: US10357480B2, “Biotin for treating peripheral demyelinating neuropathy” (MedDay Pharmaceuticals, priority 2015, dated 2019)
# Assays:
# [1] = system: CMT1A; conditions: six clinical trials, 1- or 2-year AA treatment; cited from earlier work
# [2] = in vivo; cited from earlier work
# [3] = system: patients diagnosed with Neuromyelitis optica; experiment: Treatment of patients with neuromyelitis optica, visual acuity and motor strength; type: in vivo, human; conditions: for visual acuity right: 0/10 at onset; for visual acuity left: 9/10 at onset
# From the text: Biotin can be used for treatment of neuromyelitis optica, using the same kind of regimen as disclosed in Examples 1 and 4.
# Endpoint would be partial recovery and improvement of vision or of motor strength. Three patients will be treated and assessed every 6 months with measures of visual acuity (VA) and clinical examination including motor strength testing. Results will be considered positive in case of improvement of VA of at least 5 letters associated with any improvement of motor strength.
# Results: • Patient 1: this person was diagnosed with Neuromyelitis optica. First episode of right optic neuritis occurred in 2006. This was followed by an attack of tetraplegia in 2009 with positive anti-NMO antibodies. […] The patient could not walk. Treatment with biotin (100 mg three times a day) was started. […] Treatment with biotin (100 mg three times a day) was introduced. At that time the patient was treated with monthly perfusions of cyclophosphamide. Visual acuity was 0/10 right and 9/10 left. After 4 months of treatment with biotin, visual acuity was 1/10 right and 6/10 left. After 18 months of treatment, visual acuity was 2/10 right and 8/10 left. It was concluded that treatment with biotin improved the right visual acuity.
# [4] = system: patient suffering from ALS; experiment: Treatment of a patient suffering from ALS with high doses biotin (case report); type: in vivo, human
# Description: Treatment with biotin 100 mg three times a day was started the 11 Sep. 2015. […] All these medications were introduced at least 6 months before.
# [5] = system: patients with demyelinating Charcot Marie Tooth (CMT) disease; experiment: Treatment of patients with demyelinating Charcot Marie Tooth disease, 6 minutes walking test; type: in vivo, human
# Description: Two patients with demyelinating Charcot Marie Tooth (CMT) disease were treated with biotin 300 mg/day. • A patient with CMT1a was treated with high doses of biotin (100 mg three times a day). No other treatment was introduced. The patient was followed clinically using a 6 minutes walking test. After 9 months of treatment the maximum walking distance was improved by 100 meters. • A person with CMT1E (a rare form of demyelinating CMT with hearing loss) was treated with high doses biotin (100 mg three times a day). No other drug was introduced.
# [6] = system: IgM anti-MAG demyelinating neuropathy; conditions: controlled trial (Léger et al, 2013); cited from earlier work
# [7] = biotin 100 mg three times a day
compound,measurement,setting,value
O=C1O[C@H]([C@@H](O)CO)C(O)=C1O [Ascorbic acid],clinical benefit,[1],no clinical benefit
"O=C(O)CCCC[C@@H]1SC[C@@H]2NC(=O)N[C@@H]21 [biotin, Biotin]",plasma half life,[2],about 2 hours
same,strength in the right lower limb,"[3]; NMO Patient 1, after 9 months",better strength
same,walking ability,"[3]; NMO Patient 1, after 24 months, could not walk at onset",walk with two aids and the help of the physical therapist
same,tolerability of treatment,"[3]; NMO Patient 1, biotin 100 mg three times a day, 24 months",very well tolerated
same,right hand movements,"[3]; NMO Patient 1, biotin 100 mg three times a day, after three months, confirmed after 9 months",some improvement
same,visual acuity right,"[3]; NMO Patient 2, after 4 months of biotin 100 mg three times a day, monthly cyclophosphamide",1/10
same,visual acuity left,"[3]; NMO Patient 2, after 4 months",6/10
same,visual acuity right,"[3]; NMO Patient 2, after 18 months",2/10
same,visual acuity left,"[3]; NMO Patient 2, after 18 months",8/10
same,time the patient could switch off the medical ventilator,"[4]; after 6 months of treatment, dependent on ventilator 24 hours a day at beginning",4 hours a day
same,disability,[4]; [7],some stabilization of its disability
same,weight of the patient,[4]; [7],slightly increased
same,muscle atrophy in lower extremities,"[4]; biotin 100 mg three times a day, after 3 and 6 months, better exercise tolerance during physical therapy",some improvement
same,limbs weakness and swallowing,"[4]; biotin 100 mg three times a day, after 3 and 6 months, concomitant riluzole and other medications",stabilization
same,6 minutes walk test,"[5]; CMT1E patient, after 9 months, 396 meters at onset",490 meters
same,6 minutes walk test,"[5]; CMT1E patient, after 12 months, 396 meters at onset",480 meters
same,6 minutes walk test,"[5]; CMT1E patient, after 18 months, 396 meters at onset",483 meters
same,6 minutes walk test,"[5]; CMT1E patient, after 24 months, 396 meters at onset",580 meters
same,"improvement of maximum walking distance, 6 minutes walking test","[5]; patient with CMT1a, biotin 100 mg three times a day, after 9 months",100 meters
same,6 minutes walk test,"[5]; person with CMT1E, biotin 100 mg three times a day, after 3 months, 396 meters at treatment's onset",515 meters
Rituximab: monoclonal antibody,patients condition,[6],didn't really improve
